pIC50, pKi: −log10 of the molar value.
Key:
GCN2 kinase = GCN2 kinase (Homo sapiens, UniProt Q9P2K8); experiment: GCN2 enzyme inhibition assay (Transcreener ADP2 fluorescence polarization); type: biochemical; settings: compounds of Formula II; 280 μM ATP, 4 nM GCN2 kinase
How it was run: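 Human GCN2 (4 nM) preincubated 10 min with compound (0–8 μM) and 200 μM (RS)7 peptide in Tris-HCl pH 7.5, NaCl, MgCl2, DTT. Reaction started with 280 μM ATP, run 1 h at 25 °C. ADP detected by Transcreener fluorescence polarization. IC50 and Ki(app) fitted by tight-binding algorithm.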

[1] = biological target: intracellular GCN2 (phosphorylation of the GCN2 substrate eIF2α) (Homo sapiens, UniProt Q9P2K8); experiment: GCN2 cellular inhibition assay (AlphaScreen SureFire P-eIF2α Ser51, borrelidin-treated U2OS cells); type: cell-based; settings: compounds of Formula II; biomarker assay, phosphorylated eIF2α Ser51 in borrelidin-treated U2OS cells
How it was run: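 First, U2OS cells are plated and left overnight at 37 °C. Next, compounds (from 40 μM final, 4-fold steps) and 10 μM borrelidin are added for 1 h, cells lysed, and phospho-Ser51 eIF2α detected by AlphaScreen bead sandwich. Inhibition is computed versus borrelidin-only wells.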

intracellular GCN2 (phosphorylation of the GCN2 substrate eIF2α), sequence (Q9P2K8 whole entry): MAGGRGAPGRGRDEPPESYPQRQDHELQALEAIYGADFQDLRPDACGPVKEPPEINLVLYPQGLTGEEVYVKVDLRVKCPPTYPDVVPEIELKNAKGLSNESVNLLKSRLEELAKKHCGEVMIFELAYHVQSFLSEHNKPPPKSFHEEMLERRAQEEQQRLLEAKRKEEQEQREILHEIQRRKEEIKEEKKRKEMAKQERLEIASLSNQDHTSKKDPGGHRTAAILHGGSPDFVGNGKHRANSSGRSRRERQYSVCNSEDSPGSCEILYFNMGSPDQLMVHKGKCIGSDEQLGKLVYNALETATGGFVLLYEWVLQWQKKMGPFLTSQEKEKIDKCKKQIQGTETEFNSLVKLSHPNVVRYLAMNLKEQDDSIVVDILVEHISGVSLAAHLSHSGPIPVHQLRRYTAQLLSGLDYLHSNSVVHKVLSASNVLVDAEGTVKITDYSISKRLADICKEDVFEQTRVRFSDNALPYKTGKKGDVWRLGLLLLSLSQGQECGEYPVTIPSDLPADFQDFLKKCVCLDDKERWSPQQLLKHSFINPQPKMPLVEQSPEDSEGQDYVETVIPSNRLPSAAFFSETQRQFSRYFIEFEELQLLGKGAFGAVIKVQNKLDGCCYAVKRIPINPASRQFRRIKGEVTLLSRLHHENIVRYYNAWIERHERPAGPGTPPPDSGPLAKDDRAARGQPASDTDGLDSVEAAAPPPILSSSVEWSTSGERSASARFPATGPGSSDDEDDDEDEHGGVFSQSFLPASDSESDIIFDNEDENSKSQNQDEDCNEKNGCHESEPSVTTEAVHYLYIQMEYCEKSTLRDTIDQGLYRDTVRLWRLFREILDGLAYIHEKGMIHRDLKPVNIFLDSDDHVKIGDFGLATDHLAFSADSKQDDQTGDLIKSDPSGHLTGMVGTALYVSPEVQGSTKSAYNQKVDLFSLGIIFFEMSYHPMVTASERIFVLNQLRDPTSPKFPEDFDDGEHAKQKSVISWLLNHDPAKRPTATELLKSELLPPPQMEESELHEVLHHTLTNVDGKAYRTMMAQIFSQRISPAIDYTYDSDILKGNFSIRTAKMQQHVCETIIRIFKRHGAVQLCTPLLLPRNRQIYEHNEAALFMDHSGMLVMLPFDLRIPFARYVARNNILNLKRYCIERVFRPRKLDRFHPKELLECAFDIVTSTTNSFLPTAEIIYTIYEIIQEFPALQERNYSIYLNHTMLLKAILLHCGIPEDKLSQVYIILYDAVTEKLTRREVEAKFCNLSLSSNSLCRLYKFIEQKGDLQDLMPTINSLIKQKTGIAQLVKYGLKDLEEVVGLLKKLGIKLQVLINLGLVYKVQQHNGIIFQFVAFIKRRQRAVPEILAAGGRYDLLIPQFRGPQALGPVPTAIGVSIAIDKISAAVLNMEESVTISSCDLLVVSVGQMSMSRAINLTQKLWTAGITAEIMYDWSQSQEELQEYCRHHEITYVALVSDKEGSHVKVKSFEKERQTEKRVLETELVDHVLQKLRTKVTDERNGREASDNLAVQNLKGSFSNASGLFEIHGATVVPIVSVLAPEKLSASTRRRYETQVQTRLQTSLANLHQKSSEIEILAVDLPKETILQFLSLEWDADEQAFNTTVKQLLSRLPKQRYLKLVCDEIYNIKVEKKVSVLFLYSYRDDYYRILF
GCN2 kinase, sequence (Q9P2K8 whole entry): as above

Structure (SMILES) | pKi (GCN2 kinase) | pIC50 [1]
CS(=O)(=O)N1CC2CCN(c3cc(-c4cnc5ccc(C(F)F)nn45)ncn3)C2C1 (stereo not shown) [II-282, 6-(Difluoromethyl)-3-(6-(5-(methylsulfonyl)hexahydropyrrolo[3,4-b]pyrrol-1 (2H)-yl)pyrimidin-4-yl)imidazo[1,2-b]pyridazine] | 6.00 to 8.00 | < 5.30
NS(=O)(=O)CCC1CCCCN1c1cc(-c2cnc3ccc(C(F)F)nn23)ncn1 (stereo not shown) [II-283, 2-(1-(6-(6-(Difluoromethyl)imidazo[1,2-b]pyridazin-3-yl)pyrimidin-4-yl)piperidin-2-yl)ethane-1-sulfonamide] | 6.00 to 8.00 | < 5.30
NS(=O)(=O)N1CCCC2(CN(c3cc(-c4cnc5ccc(C(F)F)nn45)ncn3)C2)C1 [II-284, 2-(6-(6-(Difluoromethyl)imidazo[1,2-b]pyridazin-3-yl)pyrimidin-4-yl)-2,6-diazaspiro[3.5]nonane-6-sulfonamide] | 6.00 to 8.00 | < 5.30
NS(=O)(=O)N1CCOC2(CN(c3cc(-c4cnc5ccc(C(F)F)nn45)ncn3)C2)C1 [II-285, 2-(6-(6-(Difluoromethyl)imidazo[1,2-b]pyridazin-3-yl)pyrimidin-4-yl)-5-oxa-2,8-diazaspiro[3.5]nonane-8-sulfonamide] | 6.00 to 8.00 | < 5.30
NS(=O)(=O)N1CC2CCN(c3cc(-c4cnc5ccc(C(F)F)nn45)ncn3)C2C1 (stereo not shown) [II-286, 1-(6-(6-(Difluoromethyl)imidazo[1,2-b]pyridazin-3-yl)pyrimidin-4-yl)hexahydropyrrolo[3,4-b]pyrrole-5(1H)-sulfonamide] | 6.00 to 8.00 | < 5.30
CS(=O)(=O)N1CCC2(CC1)CN(c1cc(-c3cnc4ccc(C(F)F)nn34)ncn1)CCO2 [II-287, 4-(6-(6-(Difluoromethyl)imidazo[1,2-b]pyridazin-3-yl)pyrimidin-4-yl)-9-(methylsulfonyl)-1-oxa-4,9-diazaspiro[5.5]undecane] | 6.00 to 8.00 | < 5.30
CS(=O)(=O)N1CCCC2(CN(c3cc(-c4cnc5ccc(C(F)F)nn45)ncn3)CCO2)C1 (stereo not shown) [II-288, 4-(6-(6-(Difluoromethyl)imidazo[1,2-b]pyridazin-3-yl)pyrimidin-4-yl)-8-(methylsulfonyl)-1-oxa-4,8-diazaspiro[5.5]undecane] | 6.00 to 8.00 | < 5.30
O=S(=O)(NCC1CCCN(c2cc(-c3cnc4ccc(C(F)F)nn34)ncn2)C1)C1COC1 (stereo not shown) [II-289, N-((1-(6-(6-(Difluoromethyl)imidazo[1,2-b]pyridazin-3-yl)pyrimidin-4-yl)piperidin-3-yl)methyl)oxetane-3-sulfonamide] | 6.00 to 8.00 | 5.30 to 6.30
CN(C[C@@H]1CN(c2cc(-c3cnc4ccc(C(F)F)nn34)ncn2)CCO1)S(C)(=O)=O [II-290, (S)—N-((4-(6-(6-(Difluoromethyl)imidazo[1,2-b]pyridazin-3-yl)pyrimidin-4-yl)morpholin-2-yl)methyl)-N-methylmethanesulfonamide] | 6.00 to 8.00 | 5.30 to 6.30
CS(=O)(=O)NC[C@H]1CCCN(c2cc(-c3cnc4ccc(C(F)(F)F)nn34)ncn2)C1 [II-291, (S)—N-((1-(6-(6-(Trifluoromethyl)imidazo[1,2-b]pyridazin-3-yl)pyrimidin-4-yl)piperidin-3-yl)methyl)methanesulfonamide] | > 8.00 | > 6.30
CS(=O)(=O)NC[C@@H]1CN(c2cc(-c3cnc4ccc(C(F)(F)F)nn34)ncn2)CCO1 [II-292, (S)—N-((4-(6-(6-(Trifluoromethyl)imidazo[1,2-b]pyridazin-3-yl)pyrimidin-4-yl)morpholin-2-yl)methyl)methanesulfonamide] | 6.00 to 8.00 | 5.30 to 6.30
CC1CN(c2cc(-c3cnc4ccc(C(F)(F)F)nn34)ncn2)CC(CNS(C)(=O)=O)C1(F)F (stereo not shown) [II-293, N-((4,4-Difluoro-5-methyl-1-(6-(6-(trifluoromethyl)imidazo[1,2-b]pyridazin-3-yl)pyrimidin-4-yl)piperidin-3-yl)methyl)methanesulfonamide] | 6.00 to 8.00 | 5.30 to 6.30
CC1CN(c2cc(-c3cnc4ccc(C(F)(F)F)nn34)ncn2)CC(CNS(C)(=O)=O)C1(F)F (stereo not shown) [II-294, N-((4,4-Difluoro-5-methyl-1-(6-(6-(trifluoromethyl)imidazo[1,2-b]pyridazin-3-yl)pyrimidin-4-yl)piperidin-3-yl)methyl)methanesulfonamide] | 6.00 to 8.00 | < 5.30
O=S1(=O)CCN(c2cc(-c3cnc4ccc(C(F)F)nn34)ncn2)CC1 [II-295, 4-(6-(6-(Difluoromethyl)imidazo[1,2-b]pyridazin-3-yl)pyrimidin-4-yl)thiomorpholine 1,1-dioxide] | < 6.00 | < 5.30
[O-][S+]1CCN(c2cc(-c3cnc4ccc(C(F)F)nn34)ncn2)CC1 [II-296, 4-(6-(6-(Difluoromethyl)imidazo[1,2-b]pyridazin-3-yl)pyrimidin-4-yl)thiomorpholine 1-oxide] | < 6.00 | < 5.30
OC[C@@H]1CN(c2cc(-c3cnc4ccc(C(F)F)nn34)ncn2)C[C@@H](C(F)(F)F)O1 [II-297, ((2S,6S)-4-(6-(6-(Difluoromethyl)imidazo[1,2-b]pyridazin-3-yl)pyrimidin-4-yl)-6-(trifluoromethyl)morpholin-2-yl)methanol] | 6.00 to 8.00 | 5.30 to 6.30
OC[C@H]1CN(c2cc(-c3cnc4ccc(C(F)F)nn34)ncn2)C[C@@H](C(F)(F)F)O1 [II-298, ((2R,6S)-4-(6-(6-(Difluoromethyl)imidazo[1,2-b]pyridazin-3-yl)pyrimidin-4-yl)-6-(trifluoromethyl)morpholin-2-yl)methanol] | 6.00 to 8.00 | 5.30 to 6.30
N#CCC1CCCN(c2cc(-c3cnc4ccc(C(F)F)nn34)ncn2)C1 (stereo not shown) [II-299, 2-(1-(6-(6-(Difluoromethyl)imidazo[1,2-b]pyridazin-3-yl)pyrimidin-4-yl)piperidin-3-yl)acetonitrile] | 6.00 to 8.00 | 5.30 to 6.30
CS(=O)(=O)NC[C@H]1CCCN(c2cc(-c3cnc4ccc(C(F)F)nn34)ncn2)C1 [II-300, (S)—N-((1-(6-(6-(Difluoromethyl)imidazo[1,2-b]pyridazin-3-yl)pyrimidin-4-yl)piperidin-3-yl)methyl)methanesulfonamide] | > 8.00 | > 6.30
FC(F)c1ccc2ncc(-c3cc(N4CCOC5CC54)ncn3)n2n1 (stereo not shown) [II-301, 5-(6-(6-(Difluoromethyl)imidazo[1,2-b]pyridazin-3-yl)pyrimidin-4-yl)-2-oxa-5-azabicyclo[4.1.0]heptane] | 6.00 to 8.00 | 5.30 to 6.30
CS(=O)(=O)NC[C@H]1CN(c2cc(-c3cnc4ccc(C(F)F)nn34)ncn2)C[C@@H](C(F)(F)F)O1 [II-306, N-(((2R,6S)-4-(6-(6-(Difluoromethyl)imidazo[1,2-b]pyridazin-3-yl)pyrimidin-4-yl)-6-(trifluoromethyl)morpholin-2-yl)methyl)methanesulfonamide] | 6.00 to 8.00 | 5.30 to 6.30
CS(=O)(=O)NC[C@@H]1CN(c2cc(-c3cnc4ccc(C(F)F)nn34)ncn2)C[C@@H](C(F)(F)F)O1 [II-307, N-(((2S,6S)-4-(6-(6-(Difluoromethyl)imidazo[1,2-b]pyridazin-3-yl)pyrimidin-4-yl)-6-(trifluoromethyl)morpholin-2-yl)methyl)methanesulfonamide] | 6.00 to 8.00 | 5.30 to 6.30
FC(F)c1ccc2ncc(-c3cc(N4CCCCC4)ncn3)n2n1 [II-308, 6-(Difluoromethyl)-3-(6-(piperidin-1-yl)pyrimidin-4-yl)imidazo[1,2-b]pyridazine] | 6.00 to 8.00 | < 5.30
O=C1COC2(CN1)COCCN(c1cc(-c3cnc4ccc(C(F)F)nn34)ncn1)C2 (stereo not shown) [II-309, 11-(6-(6-(Difluoromethyl)imidazo[1,2-b]pyridazin-3-yl)pyrimidin-4-yl)-1,8-dioxa-4,11-diazaspiro[5.6]dodecan-3-one] | < 6.00 | < 5.30
CN(CC1CCCN(c2cc(-c3cnc4ccc(C(F)F)nn34)ncn2)C1)S(C)(=O)=O (stereo not shown) [II-310, N-((1-(6-(6-(Difluoromethyl)imidazo[1,2-b]pyridazin-3-yl)pyrimidin-4-yl)piperidin-3-yl)methyl)-N-methylmethanesulfonamide] | 6.00 to 8.00 | 5.30 to 6.30
CN(CC1CCCN(c2cc(-c3cnc4ccc(C(F)F)nn34)ncn2)C1)S(N)(=O)=O (stereo not shown) [II-311, 1-((1-(6-(6-(Difluoromethyl)imidazo[1,2-b]pyridazin-3-yl)pyrimidin-4-yl)piperidin-3-yl)methyl)-1-methylsulfuric diamide] | > 8.00 | > 6.30
CC1C(CNS(C)(=O)=O)NCCN1c1cc(-c2cnc3ccc(C(F)F)nn23)ncn1 (stereo not shown) [II-313, N-[[4-[6-[6-(Difluoromethyl)imidazo[1,2-b]pyridazin-3-yl]pyrimidin-4-yl]-3-methyl-piperazin-2-yl]methyl]methanesulfonamide] | > 8.00 | > 6.30
OC[C@@H]1C[C@@H](C(F)(F)F)CN(c2cc(-c3cnc4ccc(C(F)F)nn34)ncn2)C1 [II-314, ((3R,5R)-1-(6-(6-(Difluoromethyl)imidazo[1,2-b]pyridazin-3-yl)pyrimidin-4-yl)-5-(trifluoromethyl)piperidin-3-yl)methanol] | 6.00 to 8.00 | < 5.30
OC[C@H]1C[C@@H](C(F)(F)F)CN(c2cc(-c3cnc4ccc(C(F)F)nn34)ncn2)C1 [II-315, ((3S,5R)-1-(6-(6-(Difluoromethyl)imidazo[1,2-b]pyridazin-3-yl)pyrimidin-4-yl)-5-(trifluoromethyl)piperidin-3-yl)methanol] | 6.00 to 8.00 | < 5.30
